Measured values as given in patent publication US20230000813A1, “COMPOUND FOR THE TREATMENT OF BOVINE OR SWINE RESPIRATORY DISEASE” (Intervet Inc., priority 2016, published 2023).
In brackets after ≈: the same amount, converted by molar mass. Several values for one entry are separate records, joined by “and”; a condition that tells them apart may be missing. Identical values can stand only once.

What was measured:
[1] = test system: 40 isolates of Pasteurella (P.) multocida; assay: MIC50/MIC90, broth-microdilution, European respiratory tract isolates; type: cell-based
Experimental: (§1) The in vitro activity of compounds against 20 isolates of Actinobacillus (A.) pleuropneumoniae, 20 of Bordetella (B.) bronchiseptica, 20 of Histophilus (H.) somni, 40 of Mannheimia (M.) haemolytica and 40 of Pasteurella (P.) multocida collected in different European countries were determined. All bacteria were isolated from the respiratory tract of swine and cattle suffering from respiratory disease. All isolates were epidemiologically unrelated as specified by the different suppliers.
(§2) The minimum inhibitory concentrations (MIC) of compounds according to the invention were determined by the broth-microdilution method according to CLSI document VET01-A4.
(§3) Microdilution trays containing a doubling dilution series of the test compounds were used for the tests.
(§4) The MIC results were interpreted according to the CLSI documents VET01-S3. The lowest concentration of compound at which no visible growth (i.e. no turbidity) detected by the unaided eye was recorded as the MIC.

[2] = test system: 20 isolates of Actinobacillus (A.) pleuropneumoniae; assay: as above; type: cell-based
Experimental: as §1, §2, §3, §4

[3] = test system: 20 isolates of Bordetella (B.) bronchiseptica; assay: as above; type: cell-based
Experimental: as §1, §2, §3, §4

[4] = test system: 20 isolates of Histophilus (H.) somni; assay: as above; type: cell-based
Experimental: as §1, §2, §3, §4

[5] = test system: 40 isolates of Mannheimia (M.) haemolytica; assay: as above; type: cell-based
Experimental: as §1, §2, §3, §4

[6] = test system: 15 isolates of H. parasuis; assay: MIC50/MIC90, agar-dilution method (GC agar base); type: cell-based; details: Haemophilus parasuis
Experimental: The in vitro activity of 3 representative compounds of this invention against 15 isolates of H. parasuis was determined. All strains were isolated from the respiratory tract of swine in different European countries The MICs for all isolates were determined by using the agar-dilution method according to CLSI document VET01-A4 [1]with the following modification: GC agar base was used instead of Mueller-Hinton agar base for the preparation of the agar-dilution plates. Results were interpreted according to the CLSI document VET01-S3.

[7] = test system: Acinetobacter baumanii AB 15919 (IV369-2012, dermatitis field isolate); assay: MIC, broth-microdilution (CLSI VET01-A4); type: cell-based; details: strain AB 15919
Experimental: (§5) The Minimum inhibitory concentrations (MIC) of compounds according to the invention were determined by the broth-microdilution method according to CLSI document VET01-A4.
(§6) Microdilution trays containing a doubling dilution series of the test compound were used for the tests.
as §4

[8] = test system: Acinetobacter baumanii AB 16496 (ATCC 19606, reference strain); assay: MIC, broth-microdilution (CLSI VET01-A4); type: cell-based; details: strain AB 16496
Experimental: as §5, §6, §4

[9] = test system: Mannheimia haemolytica MH 12180 (KLI-02944, BRD field isolate); assay: MIC, broth-microdilution (CLSI VET01-A4); type: cell-based; details: strain MH 12180
Experimental: as §5, §6, §4

[10] = test system: Staphylococcus aureus SA 5816 (2139, mastitis field isolate); assay: MIC, broth-microdilution (CLSI VET01-A4); type: cell-based; details: strain SA 5816
Experimental: as §5, §6, §4

[11] = test system: Pasteurella multocida PM 14426 (0006-439, BRD field isolate, macrolide-resistant); assay: MIC, broth-microdilution (CLSI VET01-A4); type: cell-based; details: strain PM 14426, macrolide-resistant
Experimental: as §5, §6, §4

[12] = test system: Staphylococcus aureus SA 6114 (ATCC 29213, reference strain); assay: MIC, broth-microdilution (CLSI VET01-A4); type: cell-based; details: strain SA 6114
Experimental: as §5, §6, §4

[13] = Plasma and tissue concentrations and pharmacokinetics in infected calves (Example 8); type: in vivo, Holstein black pied cattle calves
Experimental: Three animals each were treated one hour after infection by subcutaneous (SC) administration of Compound 329 in an aqueous 30% (w/v) Captisol® solution for injection at a dose of 10 mg/kg BW.
Food consumption was measured. Single individual blood samples were collected from the 12 animals at the following time points: D-1 (predose), 30 minutes, 2, 4, 6, 24 h and at D2 (ca. 45 h) after administration. After the day 2 blood sampling, the infected cattle were slaughtered. The lungs were weighted. Lung states and lung scores were observed morphologically.
At necropsy from animals treated with test items or the positive control, samples of epithelial lining fluid (ELF), lung tissue, and additionally tissue of liver and kidney were collected. From each lung two bacteriological swaps were taken from the left and right bronchus.
Epithelial lining fluid was collected by inserting sterile paper strips caudally behind the tracheal bifurcation directly onto the bronchial mucous membrane in the left and right bronchus and allowed to moisten with bronchial fluid. The paper strip was left in place (resting on the bronchial mucosa) for approximately 1 minute before being placed back into the plastic container.
From each lung two tissue samples were collected by clipping from at least two locations, one from morphologically unchanged tissue, one from the edge of pathomorphologically changed areas.
Plasma, ELF, lung tissue and additional tissue samples were analyzed for concentrations of Compound 329 and Enrofloxacin/Ciprofloxacin respectively using a HPLC-MS/MS method.
An analysis of the measured plasma concentrations of C.

[14] = SC single 10 mg/kg in 30% Captisol, individual animals and mean, 10 mg/kg
[15] = plasma, SC 10 mg/kg, mean, Phoenix WinNonlin

CC(C)(N)C(NC(=O)c1ccc(C#Cc2ccc(CNC3CC3)cc2)cc1)C(=O)NO (stereo not drawn) [C. 329]
MIC50 [1]: 0.032 µg/mL (≈ 0.0761 µM)
MIC90 [1]: 0.032 µg/mL (≈ 0.0761 µM)
MIC50 [2]: 0.5 µg/mL (≈ 1.19 µM)
MIC90 [2]: 0.5 µg/mL (≈ 1.19 µM)
MIC50 [3]: 2 µg/mL (≈ 4.76 µM)
MIC90 [3]: 4 µg/mL (≈ 9.51 µM)
MIC50 [4]: 0.25 µg/mL (≈ 0.595 µM)
MIC90 [4]: 0.25 µg/mL (≈ 0.595 µM)
MIC50 [5]: 0.5 µg/mL (≈ 1.19 µM)
MIC90 [5]: 1 µg/mL (≈ 2.38 µM)
MIC50 [6]: 2 µg/mL (≈ 4.76 µM)
MIC90 [6]: 4 µg/mL (≈ 9.51 µM)
MIC [7]: 16 µg/mL (≈ 38 µM)
MIC [8]: >16 µg/mL
MIC [9]: 0.5 µg/mL (≈ 1.19 µM)
MIC [10]: >16 µg/mL
MIC [11]: ≤0.016 µg/mL
MIC [12]: >16 µg/mL
compound concentrations in the tissue samples ([13]; SC 10 mg/kg, compared with plasma, in words): above the plasma concentration
detection in plasma and section tissue samples ([13]; SC 10 mg/kg, in words): detected at high concentrations
Concentration, Plasma 0.5 h [13, 14]: 2340 ng/mL and 1520 ng/mL and 1280 ng/mL
Concentration, Plasma 2 h [13, 14]: 1930 ng/mL and 1410 ng/mL and 2330 ng/mL
Concentration, Plasma 4 h [13, 14]: 1200 ng/mL and 856 ng/mL and 1310 ng/mL
Concentration, Plasma 6 h [13, 14]: 692 ng/mL and 928 ng/mL and 718 ng/mL
Concentration, Plasma 24 h [13, 14]: 146 ng/mL and 187 ng/mL and 176 ng/mL
Concentration, Plasma 48 h [13, 14]: 60.5 ng/mL and 57.4 ng/mL and 85.2 ng/mL
Concentration, Tissue (48 h) Kidney [13, 14]: 22800 ng/mL and 25500 ng/mL and 17100 ng/mL
Concentration, Tissue (48 h) Liver [13, 14]: 7760 ng/mL and 7850 ng/mL and 5130 ng/mL
Concentration, Tissue (48 h) Lung [13, 14]: 8290 ng/mL and 9410 ng/mL and 7570 ng/mL
Concentration, Tissue (48 h) ELF ([13]; epithelial lining fluid, SC single 10 mg/kg in 30% Captisol, individual animals and mean, 10 mg/kg): 320 ng/mL and 356 ng/mL and 1370 ng/mL
AUClast [13, 15]: 19434 ng·h/mL
Cmax [13, 15]: 2063 ng/mL
HL_Lambda_z (Half life time) [13, 15]: 11.1 h
MRTlast (Mean retention time till last measured value) [13, 15]: 9.7 h
Tmax [13, 15]: 1.0 h
Vz_F_obs [13, 15]: 7.8 L/kg
